According to patent US9738655B2, “Tetrahydroisoquinolines containing substituted azoles as factor XIa inhibitors” (BRISTOL-MYERS SQUIBB COMPANY, priority 2013, dated 2017):
Where a name gives a salt, the structure may show the parent alone. Read-outs that look alike come from different tables or passages of the source.

Experiments:
[1] = biological target: purified human plasma kallikrein (Homo sapiens (Human), UniProt P03952); assay: Plasma kallikrein enzyme inhibition assay (chromogenic substrate S-2302); type: biochemical
[2] = biological target: purified human Factor XIa (Homo sapiens (Human), UniProt P03951); assay: Factor XIa enzyme inhibition assay (chromogenic substrate S-2366)
Protocol: The effectiveness of compounds of the present invention as inhibitors of the coagulation Factors XIa, VIIa, IXa, Xa, XIIa, plasma kallikrein or thrombin, can be determined using a relevant purified serine protease, respectively, and an appropriate synthetic substrate. The rate of hydrolysis of the chromogenic or fluorogenic substrate by the relevant serine protease was measured both in the absence and presence of compounds of the present invention. […] A decrease in the rate of absorbance or fluorescence change in the presence of inhibitor is indicative of enzyme inhibition. […] The results of this assay are expressed as the inhibitory constant, Ki.
Values of Ki were determined by allowing the protease to react with the substrate in the presence of the inhibitor.

[3] = read-out: Factor XIa Ki, measured at 25° C.
[4] = measured at 25° C. (no asterisk)
[5] = measured at 25° C. (no asterisk), TFA salt
[6] = read-out: Factor XIa Ki, measured at 25° C., TFA salt

Sequence of purified human Factor XIa (P03951 388-625): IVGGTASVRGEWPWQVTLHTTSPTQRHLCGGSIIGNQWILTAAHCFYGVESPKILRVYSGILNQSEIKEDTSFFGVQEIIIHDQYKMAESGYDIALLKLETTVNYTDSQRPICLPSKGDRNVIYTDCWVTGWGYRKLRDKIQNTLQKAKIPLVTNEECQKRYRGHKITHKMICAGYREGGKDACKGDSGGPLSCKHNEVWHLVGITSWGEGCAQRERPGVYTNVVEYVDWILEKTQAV
Sequence of purified human Factor XIa (P03951 19-387 partner): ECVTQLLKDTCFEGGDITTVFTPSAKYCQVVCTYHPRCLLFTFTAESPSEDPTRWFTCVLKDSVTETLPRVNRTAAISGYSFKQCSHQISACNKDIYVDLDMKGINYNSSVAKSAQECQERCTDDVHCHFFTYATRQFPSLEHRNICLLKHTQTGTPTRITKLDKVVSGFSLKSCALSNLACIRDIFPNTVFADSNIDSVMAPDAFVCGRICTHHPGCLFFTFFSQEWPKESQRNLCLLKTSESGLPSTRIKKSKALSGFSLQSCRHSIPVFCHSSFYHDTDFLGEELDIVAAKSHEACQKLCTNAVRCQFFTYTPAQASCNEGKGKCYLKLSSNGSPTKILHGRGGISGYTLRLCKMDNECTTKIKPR
Sequence of purified human plasma kallikrein (P03952 391-638): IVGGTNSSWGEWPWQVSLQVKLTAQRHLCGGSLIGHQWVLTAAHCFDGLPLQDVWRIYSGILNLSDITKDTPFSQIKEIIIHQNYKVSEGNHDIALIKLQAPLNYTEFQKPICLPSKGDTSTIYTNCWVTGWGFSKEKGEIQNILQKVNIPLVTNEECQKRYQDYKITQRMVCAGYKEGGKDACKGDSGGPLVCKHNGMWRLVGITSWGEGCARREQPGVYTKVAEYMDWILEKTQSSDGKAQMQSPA
Sequence of purified human plasma kallikrein (P03952 20-390 partner): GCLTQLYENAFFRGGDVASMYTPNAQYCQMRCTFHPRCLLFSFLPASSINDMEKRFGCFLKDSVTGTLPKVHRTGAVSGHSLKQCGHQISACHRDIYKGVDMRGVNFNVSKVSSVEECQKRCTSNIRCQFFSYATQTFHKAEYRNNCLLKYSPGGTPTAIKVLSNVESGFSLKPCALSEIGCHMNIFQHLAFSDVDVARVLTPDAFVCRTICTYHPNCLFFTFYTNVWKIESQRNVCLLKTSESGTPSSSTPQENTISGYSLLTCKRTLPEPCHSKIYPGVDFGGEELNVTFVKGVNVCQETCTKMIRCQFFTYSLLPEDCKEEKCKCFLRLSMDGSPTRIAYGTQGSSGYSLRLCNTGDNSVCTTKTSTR

| SMILES | Ki [2, 3] [nM] | Ki [1, 4] [nM] | other results |
| --- | --- | --- | --- |
| COC1CCN(c2cccc3c2CCN(C(=O)c2cn(-c4cccc(Cl)c4F)cn2)[C@H]3C(=O)Nc2ccc(C(=O)O)cc2)CC1 [Example 272, (R)-4-(2-(1-(3-chloro-2-fluorophenyl)-1H-imidazole-4-carbonyl)-5-(4-methoxypiperidin-1-yl)-1,2,3,4-tetrahydroisoquinoline-1-carboxamido)benzoic acid, TFA salt] | 976 |  | Ki ([1]; measured at 37° C. (*)): > 6000 nM |
| COC1CCN(c2cccc3c2CCN(C(=O)c2cnn(-c4cccc(Cl)c4F)c2N)[C@H]3C(=O)Nc2ccc(C(=O)O)cc2)CC1 [Example 286, (R)-4-(2-(5-amino-1-(3-chloro-2-fluorophenyl)-1H-pyrazole-4-carbonyl)-5-(4-methoxypiperidin-1-yl)-1,2,3,4-tetrahydroisoquinoline-1-carboxamido)benzoic acid, TFA salt] | 266 | 3290 |  |
| CN1CCN(c2cccc3c2CCN(C(=O)c2cn(-c4cccc(Cl)c4F)nn2)[C@H]3C(=O)Nc2ccc(C(=O)O)cc2)CC1=O [Example 288, (R)-4-(2-(1-(3-chloro-2-fluorophenyl)-1H-1,2,3-triazole-4-carbonyl)-5-(4-methyl-3-oxopiperazin-1-yl)-1,2,3,4-tetrahydroisoquinoline-1-carboxamido)benzoic acid, TFA salt] | 155 | 824 |  |
| COC1CCN(c2cccc3c2CCN(C(=O)C2CC(c4c(C(F)(F)F)ccc(Cl)c4F)=NO2)C3C(=O)Nc2ccc(C(=O)O)cc2)CC1 (stereo not shown) [Example 297, 4-(2-(3-(3-chloro-2-fluoro-6-(trifluoromethyl)phenyl)-4,5-dihydroisoxazole-5-carbonyl)-5-(4-methoxypiperidin-1-yl)-1,2,3,4-tetrahydroisoquinoline-1-carboxamido)benzoic acid, TFA salt] |  |  | Ki [1, 5]: 1280 nM; Ki [2, 6]: 46.3 nM |
| COC1CCN(c2cccc3c2CCN(C(=O)C2CC(c4c(C(F)(F)F)ccc(Cl)c4F)=NO2)C3C(=O)Nc2ccc(C(=O)O)cc2)CC1 (stereo not shown) [Example 298, 4-(2-(3-(3-chloro-2-fluoro-6-(trifluoromethyl)phenyl)-4,5-dihydroisoxazole-5-carbonyl)-5-(4-methoxypiperidin-1-yl)-1,2,3,4-tetrahydroisoquinoline-1-carboxamido)benzoic acid, TFA salt] |  |  | Ki [1, 5]: 1010 nM; Ki [2, 6]: 64.8 nM |
| CO[C@@H]1CCN(c2cccc3c2CCN(C(=O)[C@H]2CC(c4cccc(Cl)c4F)=NO2)[C@H]3C(=O)Nc2ccc(C(=O)O)cc2)C1 [Example 299, 4-((R)-2-((R)-3-(3-chloro-2-fluorophenyl)-4,5-dihydroisoxazole-5-carbonyl)-5-((R)-3-methoxypyrrolidin-1-yl)-1,2,3,4-tetrahydroisoquinoline-1-carboxamido)benzoic acid, TFA salt] | 62.7 | 316 |  |
| COC1CCN(c2cccc3c2CCN(C(=O)C2CCN(c4cccc(Cl)c4F)C2)C3C(=O)Nc2ccc(C(=O)O)cc2)CC1 (stereo not shown) [Example 307, 4-(2-(1-(3-Chloro-2-fluorophenyl)pyrrolidine-3-carbonyl) 5-(4-methoxypiperidin-1-yl)-1,2,3,4-tetrahydroisoquinoline-1-carboxamido)benzoic acid, TFA salt] |  |  | Ki [1, 5]: 593 nM; Ki [2, 6]: 165 nM |
| COC1CCN(c2cccc3c2CCN(C(=O)C2CCN(c4cccc(Cl)c4F)C2)C3C(=O)Nc2ccc(C(=O)O)cc2)CC1 (stereo not shown) [Example 308, 4-(2-(1-(3-Chloro-2-fluorophenyl)pyrrolidine-3-carbonyl)-5-(4-methoxypiperidin-1-yl)-1,2,3,4-tetrahydroisoquinoline-1-carboxamido)benzoic acid, TFA salt] |  |  | Ki [1, 5]: 79.7 nM; Ki [2, 6]: 6.03 nM |
| COC1CCN(c2cccc3c2CCN(C(=O)c2cnn(-c4cccc(Cl)c4F)c2)[C@H]3C(=O)Nc2ccc(C(=O)O)cc2)CC1 [Example 316, (R)-4-(2-(1-(3-chloro-2-fluorophenyl)-1H-pyrazole-4-carbonyl)-5-(4-methoxypiperidin-1-yl)-1,2,3,4-tetrahydroisoquinoline-1-carboxamido)benzoic acid, TFA salt] |  | 578 | Ki [2]: 42.9 nM |
| CN1CCN(c2cccc3c2CCN(C(=O)c2cncc(-c4cccc(Cl)c4)c2)C3C(=O)Nc2ccc(C(=O)O)cc2)CC1 (stereo not shown) [Example 320, 4-(2-(5-(3-Chlorophenyl)nicotinoyl)-5-(4-methylpiperazin-1-yl)-1,2,3,4-tetrahydroisoquinoline-1-carboxamido)benzoic acid, 2 TFA salt] | 158 | 124 |  |
| CN1CCN(c2cccc3c2CCN(C(=O)c2cncc(-c4ccccc4)c2)C3C(=O)Nc2ccc(C(=O)O)cc2)CC1 (stereo not shown) [Example 321, 4-(5-(4-Methylpiperazin-1-yl)-2-(5-phenylnicotinoyl)-1,2,3,4-tetrahydroisoquinoline-1-carboxamido)benzoic acid] | 236 | 177 |  |
| COC1CCN(c2cccc3c2CCN(C(=O)c2cc(-c4cccc(Cl)c4F)ccn2)C3C(=O)Nc2ccc(C(=O)O)cc2)CC1 (stereo not shown) [Example 322, 4-(2-(4-(3-Chloro-2-fluorophenyl)picolinoyl)-5-(4-methoxypiperidin-1-yl)-1,2,3,4-tetrahydroisoquinoline-1-carboxamido)benzoic acid, 2 TFA salt] | 8.21 | 138 |  |
| COC1CCN(c2cccc3c2CCN(C(=O)c2ccnc(-c4cccc(Cl)c4F)c2)C3C(=O)Nc2ccc(C(=O)O)cc2)CC1 (stereo not shown) [Example 324, 4-(2-(2-(3-Chloro-2-fluorophenyl)isonicotinoyl)-5-(4-methoxypiperidin-1-yl)-1,2,3,4-tetrahydroisoquinoline-1-carboxamido)benzoic acid, 2 TFA salt] | 37.1 | 958 |  |
| COC1CCN(c2cccc3c2CCN(C(=O)c2cccc(-c4cccc(Cl)c4F)n2)C3C(=O)Nc2ccc(C(=O)O)cc2)CC1 (stereo not shown) [Example 325, 4-(2-(6-(3-Chloro-2-fluorophenyl)picolinoyl)-5-(4-methoxypiperidin-1-yl)-1,2,3,4-tetrahydroisoquinoline-1-carboxamido)benzoic acid, 2 TFA salt] | 2400 |  | Ki ([1]; measured at 37° C. (*)): > 6000 nM |

Now from value to compound, other results behind:

| Ki [2, 3] [nM] | Ki [1, 4] [nM] | SMILES | other results |
| --- | --- | --- | --- |
| < 5 | 7.65 | COC1CCN(c2cccc3c2CCN(C(=O)c2cn(-c4cccc(Cl)c4F)cn2)[C@@H]3C(=O)Nc2ccc(C(=O)O)cc2)CC1 [Example 273, (S)-4-(2-(1-(3-chloro-2-fluorophenyl)-1H-imidazole-4-carbonyl)-5-(4-methoxypiperidin-1-yl)-1,2,3,4-tetrahydroisoquinoline-1-carboxamide)benzoic acid, TFA salt] |  |
| < 5 | 19.8 | COC1CCN(c2cccc3c2CCN(C(=O)c2cnn(-c4cccc(Cl)c4F)c2N)[C@@H]3C(=O)Nc2ccc(C(=O)O)cc2)CC1 [Example 285, (S)-4-(2-(5-amino-1-(3-chloro-2-fluorophenyl)-1H-pyrazole-4-carbonyl)-5-(4-methoxypiperidin-1-yl)-1,2,3,4-tetrahydroisoquinoline-1-carboxamido)benzoic acid, TFA salt] |  |
| < 5 | 1.82 | CN1CCN(c2cccc3c2CCN(C(=O)c2cn(-c4cccc(Cl)c4F)nn2)[C@@H]3C(=O)Nc2ccc(C(=O)O)cc2)CC1=O [Example 287, (S)-4-(2-(1-(3-chloro-2-fluorophenyl)-1H-1,2,3-triazole-4-carbonyl)-5-(4-methyl-3-oxopiperizin-1-yl)-1,2,3,4-tetrahydroisoquinoline-1-carboxamido)benzoic acid, TFA salt] |  |
| < 5 | 4.15 | CO[C@@H]1CCN(c2cccc3c2CCN(C(=O)[C@H]2CC(c4cccc(Cl)c4F)=NO2)[C@@H]3C(=O)Nc2ccc(C(=O)O)cc2)C1 [Example 300, 4-((S)-2-((R)-3-(3-chloro-2-fluorophenyl)-4,5-dihydroisoxazole-5-carbonyl)-5-((R)-3-methoxypyrrolidin-1-yl)-1,2,3,4-tetrahydroisoquinoline-1-carboxamido)benzoic acid, TFA salt] |  |
| < 5 | 10.3 | COC1CCN(c2cccc3c2CCN(C(=O)c2cn(-c4cccc(Cl)c4F)nn2)[C@@H]3C(=O)Nc2ccc(C(=O)O)cc2)CC1 [Example 314, (S)-4-(2-(1-(3-chloro-2-fluorophenyl)-1H-1,2,3-triazole-4-carbonyl)-5-(4-methoxypiperidin-1-yl)-1,2,3,4-tetrahydroisoquinoline-1-carboxamido)benzoic acid, TFA salt] |  |
| < 5 | 19.6 | COC1CCN(c2cccc3c2CCN(C(=O)c2cnn(-c4cccc(Cl)c4F)c2)[C@@H]3C(=O)Nc2ccc(C(=O)O)cc2)CC1 [Example 315, (S)-4-(2-(1-(3-chloro-2-fluorophenyl)-1H-pyrazole-4-carbonyl)-5-(4-methoxypiperidin-1-yl)-1,2,3,4-tetrahydroisoquinoline-1-carboxamido)benzoic acid, TFA salt] |  |
| < 5 | 41.1 | CN(C)C(=O)C1CCN(c2cccc3c2CCN(C(=O)c2cnn(-c4cccc(Cl)c4F)c2N)C3C(=O)Nc2ccc(C(=O)O)cc2)CC1 (stereo not shown) [Example 317, 4-(2-(5-Amino-1-(3-chloro-2-fluorophenyl)-1H-pyrazole-4-carbonyl)-5-(4-(dimethylcarbamoyl)piperidin-1-yl)-1,2,3,4-tetrahydroisoquinoline-1-carboxamido)benzoic acid, TFA salt] |  |
| < 5 | 21.1 | CN1CCN(c2cccc3c2CCN(C(=O)c2cnn(-c4cccc(Cl)c4F)c2N)C3C(=O)Nc2ccc(C(=O)O)cc2)CC1=O (stereo not shown) [Example 318, 4-(2-(5-Amino-1-(3-chloro-2-fluorophenyl)-1H-pyrazole-4-carbonyl)-5-(4-methyl-3-oxopiperazin-1-yl)-1,2,3,4-tetrahydroisoquinoline-1-carboxamido)benzoic acid, TFA salt] |  |
| 5.28 | 99.2 | COC1CCN(c2cccc3c2CCN(C(=O)c2cncc(-c4cccc(Cl)c4F)c2)C3C(=O)Nc2ccc(C(=O)O)cc2)CC1 (stereo not shown) [Example 323, 4-(2-(5-(3-Chloro-2-fluorophenyl)nicotinoyl)-5-(4-methoxypiperidin-1-yl)-1,2,3,4-tetrahydroisoquinoline-1-carboxamido)benzoic acid, 2 TFA salt] |  |
